{"source": "the supplement of paper PMC10307832", "assay_in_all_cases": "relative viability (nuclei count vs DMSO), 5 days (fraction); higher = more cells survive", "key": {"NCI-H1437": {"system": "NCI-H1437", "in_short": "(§1)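 Lung cancer cell lines were seeded in 1536-well plates and dosed by pin tool the next day, with either a single drug or a fixed anchor-drug dose combined with five library-drug doses (not always all listed) spaced in √10 steps. Five days later, one step fixed the cells and stained their nuclei (final 0.05% Triton X-100, 1% formaldehyde, 1 ug/ml Hoechst), and nuclei were counted on 4× images. Relative viability is the nuclei count in treated wells divided by the count in vehicle wells, and each value is the median of duplicate plates.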"}, "HARA": {"system": "HARA", "in_short": "as §1"}, "NCI-H1792": {"system": "NCI-H1792", "in_short": "as §1"}, "NCI-H522": {"system": "NCI-H522", "in_short": "as §1"}, "COR-L23": {"system": "COR-L23", "in_short": "as §1"}, "NCI-H520": {"system": "NCI-H520", "in_short": "as §1"}, "NCI-H441": {"system": "NCI-H441", "in_short": "as §1"}, "LCLC-103H": {"system": "LCLC-103H", "in_short": "as §1"}, "HCC-15": {"system": "HCC-15", "in_short": "as §1"}, "NCI-H1666": {"system": "NCI-H1666", "in_short": "as §1"}, "NCI-H650": {"system": "NCI-H650", "in_short": "as §1"}, "LK-2": {"system": "LK-2", "in_short": "as §1"}, "HCC-827": {"system": "HCC-827", "in_short": "as §1"}, "SW 900": {"system": "SW 900", "in_short": "as §1"}, "NCI-H1975": {"system": "NCI-H1975", "in_short": "as §1"}, "EKVX": {"system": "EKVX", "in_short": "as §1"}, "NCI-H596": {"system": "NCI-H596", "in_short": "as §1"}, "HCC-44": {"system": "HCC-44", "in_short": "as §1"}, "A-427": {"system": "A-427", "in_short": "as §1"}, "NCI-H838": {"system": "NCI-H838", "in_short": "as §1"}, "COR-L 105": {"system": "COR-L 105", "in_short": "as §1"}, "NCI-H23": {"system": "NCI-H23", "in_short": "as §1"}, "201T": {"system": "201T", "in_short": "as §1"}, "SK-MES-1": {"system": "SK-MES-1", "in_short": "as §1"}}}
{"smiles": "CC(C)Oc1cc(Nc2nc(N[C@@H](C)c3ccc(F)cn3)ncc2Cl)n[nH]1", "note": "[AZ23] + Nc1ncn([C@H]2C[C@H](O)[C@@H](CO)O2)c(=O)n1 [Decitabine] (partner 2 µM)", "values": [{"measurement": "relative viability", "setting": "NCI-H1437; first compound 0.01 µM", "result": 0.57}, {"measurement": "relative viability", "setting": "NCI-H1437; first compound 0.03162 µM", "result": 0.552}, {"measurement": "relative viability", "setting": "NCI-H1437; first compound 0.3162 µM", "result": 0.56}, {"measurement": "relative viability", "setting": "HARA; first compound 0.01 µM", "result": 0.621}, {"measurement": "relative viability", "setting": "HARA; first compound 0.03162 µM", "result": 0.581}, {"measurement": "relative viability", "setting": "HARA; first compound 0.3162 µM", "result": 0.504}, {"measurement": "relative viability", "setting": "NCI-H1792; first compound 0.01 µM", "result": 0.462}, {"measurement": "relative viability", "setting": "NCI-H1792; first compound 0.03162 µM", "result": 0.549}, {"measurement": "relative viability", "setting": "NCI-H1792; first compound 0.3162 µM", "result": 0.48}, {"measurement": "relative viability", "setting": "NCI-H522; first compound 0.01 µM", "result": 0.701}, {"measurement": "relative viability", "setting": "NCI-H522; first compound 0.03162 µM", "result": 0.736}, {"measurement": "relative viability", "setting": "NCI-H522; first compound 0.3162 µM", "result": 0.679}, {"measurement": "relative viability", "setting": "COR-L23; first compound 0.01 µM", "result": 0.361}, {"measurement": "relative viability", "setting": "COR-L23; first compound 0.03162 µM", "result": 0.497}, {"measurement": "relative viability", "setting": "COR-L23; first compound 0.3162 µM", "result": 0.449}, {"measurement": "relative viability", "setting": "NCI-H520; first compound 0.01 µM", "result": 0.634}, {"measurement": "relative viability", "setting": "NCI-H520; first compound 0.03162 µM", "result": 0.524}, {"measurement": "relative viability", "setting": "NCI-H520; first compound 0.3162 µM", "result": 0.418}, {"measurement": "relative viability", "setting": "NCI-H441; first compound 0.01 µM", "result": 0.294}, {"measurement": "relative viability", "setting": "NCI-H441; first compound 0.03162 µM", "result": 0.248}, {"measurement": "relative viability", "setting": "NCI-H441; first compound 0.3162 µM", "result": 0.239}, {"measurement": "relative viability", "setting": "LCLC-103H; first compound 0.01 µM", "result": 0.765}, {"measurement": "relative viability", "setting": "LCLC-103H; first compound 0.03162 µM", "result": 0.691}, {"measurement": "relative viability", "setting": "LCLC-103H; first compound 0.3162 µM", "result": 0.743}, {"measurement": "relative viability", "setting": "HCC-15; first compound 0.01 µM", "result": 0.654}, {"measurement": "relative viability", "setting": "HCC-15; first compound 0.03162 µM", "result": 0.596}, {"measurement": "relative viability", "setting": "HCC-15; first compound 0.3162 µM", "result": 0.663}, {"measurement": "relative viability", "setting": "NCI-H1666; first compound 0.01 µM", "result": 0.711}, {"measurement": "relative viability", "setting": "NCI-H1666; first compound 0.03162 µM", "result": 0.755}, {"measurement": "relative viability", "setting": "NCI-H1666; first compound 0.3162 µM", "result": 0.672}, {"measurement": "relative viability", "setting": "NCI-H650; first compound 0.01 µM", "result": 0.355}, {"measurement": "relative viability", "setting": "NCI-H650; first compound 0.03162 µM", "result": 0.329}, {"measurement": "relative viability", "setting": "NCI-H650; first compound 0.3162 µM", "result": 0.336}, {"measurement": "relative viability", "setting": "LK-2; first compound 0.01 µM", "result": 0.337}, {"measurement": "relative viability", "setting": "LK-2; first compound 0.03162 µM", "result": 0.306}, {"measurement": "relative viability", "setting": "LK-2; first compound 0.3162 µM", "result": 0.272}, {"measurement": "relative viability", "setting": "HCC-827; first compound 0.01 µM", "result": 0.361}, {"measurement": "relative viability", "setting": "HCC-827; first compound 0.03162 µM", "result": 0.316}, {"measurement": "relative viability", "setting": "HCC-827; first compound 0.3162 µM", "result": 0.323}, {"measurement": "relative viability", "setting": "SW 900; first compound 0.01 µM", "result": 0.442}, {"measurement": "relative viability", "setting": "SW 900; first compound 0.3162 µM", "result": 0.352}, {"measurement": "relative viability", "setting": "NCI-H1975; first compound 0.01 µM", "result": 0.409}, {"measurement": "relative viability", "setting": "NCI-H1975; first compound 0.03162 µM", "result": 0.451}, {"measurement": "relative viability", "setting": "NCI-H1975; first compound 0.3162 µM", "result": 0.414}, {"measurement": "relative viability", "setting": "EKVX; first compound 0.01 µM", "result": 0.395}, {"measurement": "relative viability", "setting": "EKVX; first compound 0.03162 µM", "result": 0.365}, {"measurement": "relative viability", "setting": "EKVX; first compound 0.3162 µM", "result": 0.345}, {"measurement": "relative viability", "setting": "NCI-H596; first compound 0.01 µM", "result": 1.17}, {"measurement": "relative viability", "setting": "NCI-H596; first compound 0.03162 µM", "result": 1.07}, {"measurement": "relative viability", "setting": "NCI-H596; first compound 0.3162 µM", "result": 0.955}, {"measurement": "relative viability", "setting": "HCC-44; first compound 0.01 µM", "result": 1.03}, {"measurement": "relative viability", "setting": "HCC-44; first compound 0.03162 µM", "result": 0.973}, {"measurement": "relative viability", "setting": "HCC-44; first compound 0.3162 µM", "result": 0.979}, {"measurement": "relative viability", "setting": "A-427; first compound 0.01 µM", "result": 0.508}, {"measurement": "relative viability", "setting": "A-427; first compound 0.03162 µM", "result": 0.558}, {"measurement": "relative viability", "setting": "A-427; first compound 0.3162 µM", "result": 0.591}, {"measurement": "relative viability", "setting": "NCI-H838; first compound 0.01 µM", "result": 0.487}, {"measurement": "relative viability", "setting": "NCI-H838; first compound 0.03162 µM", "result": 0.506}, {"measurement": "relative viability", "setting": "NCI-H838; first compound 0.3162 µM", "result": 0.44}, {"measurement": "relative viability", "setting": "COR-L 105; first compound 0.01 µM", "result": 0.547}, {"measurement": "relative viability", "setting": "COR-L 105; first compound 0.03162 µM", "result": 0.65}, {"measurement": "relative viability", "setting": "COR-L 105; first compound 0.3162 µM", "result": 0.708}, {"measurement": "relative viability", "setting": "NCI-H23; first compound 0.03162 µM", "result": 0.307}, {"measurement": "relative viability", "setting": "NCI-H23; first compound 0.3162 µM", "result": 0.274}, {"measurement": "relative viability", "setting": "201T; first compound 0.01 µM", "result": 0.91}, {"measurement": "relative viability", "setting": "201T; first compound 0.03162 µM", "result": 0.875}, {"measurement": "relative viability", "setting": "201T; first compound 0.3162 µM", "result": 0.86}, {"measurement": "relative viability", "setting": "SK-MES-1; first compound 0.03162 µM", "result": 0.382}, {"measurement": "relative viability", "setting": "SK-MES-1; first compound 0.3162 µM", "result": 0.357}]}
